From ChEMBL document CHEMBL1201862, “PubChem BioAssay data set” (2004)
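A five-concentration, 48-hour dose response in 96-well plates underlies each endpoint, interpolated linearly between surrounding concentrations. GI50 marks 50% less growth.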 The source made the active and inactive calls. Rule as the data show it: active = GI50 up to about 1.1 µM and inactive = higher.

Legend:
Assay in all cases: DTP human tumour cell line panel, 48 h
A549 = system: A549
UACC-257 = system: UACC-257
LOX IMVI = system: LOX IMVI
HOP-92 = system: HOP-92
HCC 2998 = system: HCC 2998
HOP-62 = system: HOP-62
KM12 = system: KM12
HL-60 = system: HL-60
RPMI-8226 = system: RPMI-8226
NCI-H460 = system: NCI-H460
A498 = system: A498
TK-10 = system: TK-10
SNB-19 = system: SNB-19
HCT-15 = system: HCT-15
SK-OV-3 = system: SK-OV-3
SNB-75 = system: SNB-75
Malme-3M = system: Malme-3M
EKVX = system: EKVX
U-251 = system: U-251
MOLT-4 = system: MOLT-4

| Structure (SMILES) | GI50 (A549) | GI50 (UACC-257) | GI50 (LOX IMVI) | GI50 (HOP-92) | GI50 (HCC 2998) | GI50 (HOP-62) | GI50 (KM12) | GI50 (HL-60) | GI50 (RPMI-8226) | GI50 (NCI-H460) | GI50 (A498) | GI50 (TK-10) | GI50 (SNB-19) | GI50 (HCT-15) [µM] | GI50 (SK-OV-3) | GI50 (SNB-75) | GI50 (Malme-3M) | GI50 (EKVX) | GI50 (U-251) | GI50 (MOLT-4) |
| --- | --- | --- | --- | --- | --- | --- | --- | --- | --- | --- | --- | --- | --- | --- | --- | --- | --- | --- | --- | --- |
| COC(=O)C1CC2(CC3=C1CCCC3)OCCO2 (stereo unspecified) | > 100 µM (inactive) | > 100 µM (inactive) | > 100 µM (inactive) | > 100 µM (inactive) | > 100 µM (inactive) | > 100 µM (inactive) | > 100 µM (inactive) | > 100 µM (inactive) | > 100 µM (inactive) | > 100 µM (inactive) | > 100 µM (inactive) | > 100 µM (inactive) | > 100 µM (inactive) | > 100 | > 100 µM (inactive) | > 100 µM (inactive) | > 100 µM (inactive) | > 100 µM (inactive) | > 100 µM (inactive) | – |
| COc1cc2c(cc1OC)[C@@H]1[C@H](C#N)C(=O)C(C)(C)N1CC2 | > 100 µM (inactive) | > 100 µM (inactive) | > 100 µM (inactive) | > 100 µM (inactive) | > 100 µM (inactive) | – | > 100 µM (inactive) | 23.6 µM (inactive) | 53.7 µM (inactive) | > 100 µM (inactive) | > 100 µM (inactive) | > 100 µM (inactive) | > 100 µM (inactive) | > 100 | > 100 µM (inactive) | – | > 100 µM (inactive) | > 100 µM (inactive) | > 100 µM (inactive) | > 100 µM (inactive) |
| O=C(N[C@H]1c2ccsc2/C(=N/O)[C@H]1O)C(F)(F)F | > 100 µM (inactive) | > 100 µM (inactive) | > 100 µM (inactive) | > 100 µM (inactive) | > 100 µM (inactive) | > 100 µM (inactive) | – | > 100 µM (inactive) | – | > 100 µM (inactive) | > 100 µM (inactive) | > 100 µM (inactive) | > 100 µM (inactive) | > 100 | > 100 µM (inactive) | > 100 µM (inactive) | > 100 µM (inactive) | > 100 µM (inactive) | > 100 µM (inactive) | > 100 µM (inactive) |
| C/C(=C\c1ccccc1)C(=O)CCN1CCOCC1 | > 90.8 µM (inactive) | 15.6 µM (inactive) | 16.9 µM (inactive) | 20.4 µM (inactive) | 16.7 µM (inactive) | > 100 µM (inactive) | 14.9 µM (inactive) | 33.7 µM (inactive) | 3.15 µM (inactive) | 62.1 µM (inactive) | > 56 µM (inactive) | – | > 44.9 µM (inactive) | 16.3 | > 100 µM (inactive) | 23.7 µM (inactive) | 17.5 µM (inactive) | 27.8 µM (inactive) | 18.1 µM (inactive) | 19.1 µM (inactive) |
| COC1=C(OC)C(=O)c2cc(SC)c(=O)c(SC)cc2C1=O | 22.6 µM (inactive) | 6.65 µM (inactive) | 4.48 µM (inactive) | 17.7 µM (inactive) | > 100 µM (inactive) | 15 µM (inactive) | 96.4 µM (inactive) | 1.68 µM (inactive) | 15.2 µM (inactive) | 45.5 µM (inactive) | 24.5 µM (inactive) | 59 µM (inactive) | 22.6 µM (inactive) | 25.1 | 36.4 µM (inactive) | 13.6 µM (inactive) | – | 21.2 µM (inactive) | 17.9 µM (inactive) | 3.79 µM (inactive) |
| COc1ccc(C(O)/C(=N\NC(N)=S)c2nc3ccc([N+](=O)[O-])cc3nc2O)cc1OC (stereo unspecified) | > 100 µM (inactive) | 64.3 µM (inactive) | > 100 µM (inactive) | > 100 µM (inactive) | > 100 µM (inactive) | > 100 µM (inactive) | > 100 µM (inactive) | > 100 µM (inactive) | > 100 µM (inactive) | > 100 µM (inactive) | > 100 µM (inactive) | > 100 µM (inactive) | – | – | > 100 µM (inactive) | > 100 µM (inactive) | > 100 µM (inactive) | > 100 µM (inactive) | > 100 µM (inactive) | 78.3 µM (inactive) |
